Results from the supplement of paper PMC9763283.

Key:
Experiment in all cases: area under growth-rate inhibition curve (AUC GRI) (dimensionless (GR-based AUC)); higher = less growth inhibition
Conditions in all cases: exposure time: 72 h; concentrations: 0.1, 1, 10 uM
[1] = tested on: BT474-P
Method in brief: (§1)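 Nuclear counts from Hoechst 33342- or DAPI-stained images were used to estimate the area under the growth-rate inhibition curve, with growth corrected by reference to untreated and DMSO-treated plates and starting plates. The six breast cancer cell line models, comprising two triple-negative lines and parental and drug-combination-resistant HER2+ lines, were treated with compound at 0.1, 1 or 10 µM for 72 h. Data came from 2 biological replicates, using Day 0 and Day 3 plates.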

[2] = tested on: SKBR3-LTR
Method in brief: as §1

[3] = tested on: SKBR3-P
Method in brief: as §1

[4] = tested on: BT474-LTR
Method in brief: as §1

[5] = tested on: MDA-MB-468
Method in brief: as §1

[6] = tested on: MDA-MB-231
Method in brief: as §1

Row | Structure (SMILES) | area under growth-rate inhibition curve [1] | area under growth-rate inhibition curve [2] | area under growth-rate inhibition curve [3] | area under growth-rate inhibition curve [4] | area under growth-rate inhibition curve [5] | area under growth-rate inhibition curve [6]
1 | COc1cc2nc(N3CCN(C(=O)C4CCCO4)CC3)nc(N)c2cc1OC.[Cl-].[H+] (configuration not stated) [Terazosin] | 1.02 | 1.01 | 1.03 | 1.07 | 0.998 | 0.999
2 | [Cl-].[H+].c1ccc2c(c1)CCCC2C1=NCCN1 (configuration not stated) [Tetrahydrozoline HCl] | 1.03 | 1.02 | 1.02 | 1.07 | 1.03 | 1.01
3 | CN1c2ccccc2C(NCCCCCCC(=O)[O-])c2ccc(Cl)cc2S1(=O)=O.[Na+] (configuration not stated) [Tianeptine sodium] | 1.06 | 1.02 | 1.01 | 1.09 | 1.05 | 1.02
4 | CCCSc1nc(NC2CC2c2ccc(F)c(F)c2)c2nnn(C3CC(OCCO)C(O)C3O)c2n1 (configuration not stated) [Ticagrelor] | 0.922 | 0.968 | 0.995 | 0.984 | 0.975 | 0.975
5 | CC(C)(C)NC[C@@H](O)COc1nsnc1N1CCOCC1.O=C(O)/C=C\C(=O)O [Timolol Maleate] | 1.04 | 1.06 | 1.02 | 1.11 | 1.04 | 1.03
6 | C[N+]1(C)[C@@H]2CC(OC(=O)C(O)(c3cccs3)c3cccs3)C[C@H]1C1OC12.O.[Br-] (some centres not stated) [Tiotropium Bromide hydrate] | 1.05 | 1.04 | 1.02 | 1.12 | 1.03 | 1.05
7 | Cl.Clc1ccc2nsnc2c1NC1=NCCN1 [Tizanidine HCl] | 1.02 | 1.01 | 1 | 1.07 | 1.02 | 1.02
8 | [Cl-].[H+].c1ccc(CC2=NCCN2)cc1 [Tolazoline HCl] | 1.06 | 1.1 | 1.02 | 1.1 | 1.05 | 1.04
9 | Cc1ccc(O)c([C@H](CCN(C(C)C)C(C)C)c2ccccc2)c1.O=C(O)[C@H](O)[C@@H](O)C(=O)O [Tolterodine tartrate] | 1.04 | 1.06 | 0.972 | 1.12 | 1.04 | 1.03
10 | Cc1ccccc1C(=O)Nc1ccc(C(=O)N2CCCC(O)c3cc(Cl)ccc32)c(C)c1 (configuration not stated) [Tolvaptan] | 1 | 1.03 | 1.02 | 1.03 | 1.02 | 1.01
11 | CC1(C)O[C@@H]2[C@@H](CO[C@@]3(COS(N)(=O)=O)OC(C)(C)O[C@@H]23)O1 [Topiramate] | 1.02 | 1.04 | 1.02 | 1.05 | 1.05 | 1.03
12 | CN(C)CCOc1ccc(/C(=C(/CCCl)c2ccccc2)c2ccccc2)cc1.O=C(O)CC(O)(CC(=O)O)C(=O)O [Toremifene Citrate] | 0.893 | 0.977 | 0.98 | 0.945 | 0.908 | 0.941
13 | CCC(COC(=O)c1cc(OC)c(OC)c(OC)c1)(c1ccccc1)N(C)C (configuration not stated) [Trimebutine] | 0.981 | 1 | 1.03 | 0.977 | 0.984 | 0.972
14 | CCN(Cc1ccncc1)C(=O)C(CO)c1ccccc1 (configuration not stated) [Tropicamide] | 1.05 | 1.07 | 1.01 | 1.09 | 1.01 | 1.02
15 | CN1[C@@H]2CC[C@H]1CC(OC(=O)C1C=Nc3ccccc31)C2.[Cl-].[H+] (some centres not stated) [Tropisetron] | 1.02 | 1.06 | 0.976 | 1.09 | 1.02 | 1.03
16 | O=C(O[C@H]1C[C@H]2CC[C@@H](C1)[N+]21CCCC1)C(O)(c1ccccc1)c1ccccc1.[Cl-] [Trospium chloride] | 1.06 | 1.09 | 1 | 1.11 | 1.06 | 1.04
17 | COc1ccccc1N1CCN(CCCNc2cc(=O)n(C)c(=O)n2C)CC1.[Cl-].[H+] [Urapidil HCl] | 1.03 | 1.09 | 1.04 | 1.1 | 1.04 | 1.02
18 | COc1ccc(C(CN(C)C)C2(O)CCCCC2)cc1 (configuration not stated) [Venlafaxine] | 0.982 | 1.01 | 0.972 | 0.974 | 0.994 | 0.983
19 | CS(=O)(=O)c1ccc(C(=O)Nc2ccc(Cl)c(-c3ccccn3)c2)c(Cl)c1 [Vismodegib (GDC-0449)] | 1.03 | 1.03 | 1.03 | 1.08 | 0.997 | 1.03
20 | CCOC(=O)NC1CCC2C(C1)CC1C(=O)OC(C)C1C2C=Cc1ccc(-c2cccc(F)c2)cn1 (configuration not stated) [Vorapaxar] | 0.947 | 0.983 | 0.944 | 1.04 | 0.966 | 1.01
21 | c1ccc(NCc2ccc(CNc3ccccn3)cc2)nc1 [WZ811] | 1.02 | 1.04 | 1.01 | 1.08 | 1.04 | 1.02
22 | Cc1cccc(C)c1NC1=NCCCS1.[Cl-].[H+] [Xylazine HCl] | 1.04 | 1.07 | 1.01 | 1.12 | 1.04 | 1.02
23 | COc1nc(C)cnc1NS(=O)(=O)c1cccnc1-c1ccc(-c2nnco2)cc1 [Zibotentan (ZD4054)] | 1.02 | 1.04 | 0.958 | 1.07 | 1.01 | 1.03
24 | CC(c1cc2ccccc2s1)N(O)C(N)=O (configuration not stated) [Zileuton] | 1.04 | 1.05 | 1.04 | 1.07 | 1.05 | 1.04
25 | O=C1Cc2cc(CCN3CCN(c4nsc5ccccc45)CC3)c(Cl)cc2N1.[Cl-].[H+] [Ziprasidone hydrochloride] | 0.993 | 1.05 | 1 | 1.06 | 1.03 | 1.03
26 | CN(C)CCc1c[nH]c2ccc(C[C@H]3COC(=O)N3)cc12 [Zolmitriptan] | 1.06 | 1.07 | 1.03 | 1.09 | 1.05 | 1.06
27 | CN(C)CCOC(c1ccc(Cl)cc1)c1ccccn1 (configuration not stated) [carbinoxamine] | 0.999 | 1.06 | 1.03 | 1.04 | 1.04 | 1.04
